Test system: 556581-035-R-J1-PDC complex spheroid growth
Assay: Anticancer human tumor 556581-035-R-J1-PDC patient-derived ovarian carcinoma cell line growth inhibition [AhR]
Conditions: for IC50: curve of first compound; for viability, T/C: stronger effect = lower value
Outline: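 Complex tumor spheroids co-cultured with HUVEC and human MSC stroma; AhR antagonists tested in combination with standard-of-care and investigational agents. Top concentration at or near clinical Cmax (else 10 microM), half-log dilutions; growth expressed as percent test/control.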

[1] = second compound 0.1 µM, first compound 0.0316 µM
[2] = second compound 0.1 µM, first compound 0.1 µM
[3] = second compound 0.1 µM, first compound 0.316 µM
[4] = second compound 0.1 µM, first compound 1 µM
[5] = second compound 0.1 µM, first compound 3.16 µM
[6] = second compound 0.1 µM, first compound 10 µM
[7] = second compound 0.316 µM, first compound 0.0316 µM
[8] = second compound 0.316 µM, first compound 0.1 µM
[9] = second compound 0.316 µM, first compound 0.316 µM
[10] = second compound 0.316 µM, first compound 1 µM
[11] = second compound 0.316 µM, first compound 3.16 µM
[12] = second compound 0.316 µM, first compound 10 µM
[13] = second compound 1 µM, first compound 0.0316 µM
[14] = second compound 1 µM, first compound 0.1 µM
[15] = second compound 1 µM, first compound 0.316 µM
[16] = second compound 1 µM, first compound 1 µM
[17] = second compound 1 µM, first compound 3.16 µM
[18] = second compound 1 µM, first compound 10 µM
[19] = second compound 3.16 µM, first compound 0.0316 µM
[20] = second compound 3.16 µM, first compound 0.1 µM
[21] = second compound 3.16 µM, first compound 0.316 µM
[22] = second compound 3.16 µM, first compound 1 µM
[23] = second compound 3.16 µM, first compound 3.16 µM
[24] = second compound 3.16 µM, first compound 10 µM
[25] = second compound 10 µM, first compound 0.0316 µM
[26] = second compound 10 µM, first compound 0.1 µM
[27] = second compound 10 µM, first compound 0.316 µM
[28] = second compound 10 µM, first compound 1 µM
[29] = second compound 10 µM, first compound 3.16 µM
[30] = second compound 10 µM, first compound 10 µM
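Wherever viability, T/C is given: compound exposure lasted 7 days; 100% = DMSO vehicle control growth.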

Structure (SMILES) | IC50 (second compound 0.1 µM) [µM] | IC50 (second compound 0.316 µM) [µM] | IC50 (second compound 1 µM) [µM] | IC50 (second compound 3.16 µM) [µM] | IC50 (second compound 10 µM) [µM] | viability, T/C [1] [%] | viability, T/C [2] [%] | viability, T/C [3] [%] | viability, T/C [4] [%] | viability, T/C [5] [%] | viability, T/C [6] [%] | viability, T/C [7] [%] | viability, T/C [8] [%] | viability, T/C [9] [%] | viability, T/C [13] [%] | viability, T/C [14] [%] | viability, T/C [19] [%] | viability, T/C [20] [%] | viability, T/C [25] [%] | viability, T/C [26] [%] | further results
CC1(C)CCC(CN2CCN(c3ccc(C(=O)NS(=O)(=O)c4ccc(NCC5CCOCC5)c([N+](=O)[O-])c4)c(Oc4cnc5[nH]ccc5c4)c3)CC2)=C(c2ccc(Cl)cc2)C1 + CC(CO)NC(=O)c1cc(-c2ccc(Cl)cc2)nn(-c2cnn(C)c2)c1=O | > 10 | > 10 | > 10 | > 10 | > 10 | 99.2 | 111 | 114 | 90.7 | 96.5 | 90.1 | 99.3 | 116 | 102 | 117 | 117 | 104 | 106 | 109 | 115 | viability, T/C [10]: 97.2%; viability, T/C [11]: 98.6%; viability, T/C [12]: 82.8%; viability, T/C [15]: 105%; viability, T/C [16]: 106%; viability, T/C [17]: 103%; viability, T/C [18]: 79.5%; viability, T/C [21]: 105%; viability, T/C [22]: 122%; viability, T/C [23]: 94%; viability, T/C [24]: 73%; viability, T/C [27]: 115%; viability, T/C [28]: 122%; viability, T/C [29]: 99%; viability, T/C [30]: 85.7%
Cn1ncnc1C1c2n[nH]c(=O)c3cc(F)cc(c23)NC1c1ccc(F)cc1 (stereo not given) + CC(CO)NC(=O)c1cc(-c2ccc(Cl)cc2)nn(-c2cnn(C)c2)c1=O | > 0.1 | > 0.1 | > 0.1 | > 0.1 | > 0.1 | 97.3 | 99.7 | – | – | – | – | 99.3 | 93.4 | – | 98.7 | 99.6 | 101 | 89.6 | 92.6 | 97.2 | viability, T/C (second compound 0.1 µM, first compound 0.000316 µM): 109%; viability, T/C (second compound 0.1 µM, first compound 0.001 µM): 104%; viability, T/C (second compound 0.1 µM, first compound 0.00316 µM): 101%; viability, T/C (second compound 0.1 µM, first compound 0.01 µM): 103%; viability, T/C (second compound 0.316 µM, first compound 0.000316 µM): 97%; viability, T/C (second compound 0.316 µM, first compound 0.001 µM): 111%; viability, T/C (second compound 0.316 µM, first compound 0.00316 µM): 137%; viability, T/C (second compound 0.316 µM, first compound 0.01 µM): 113%; viability, T/C (second compound 1 µM, first compound 0.000316 µM): 112%; viability, T/C (second compound 1 µM, first compound 0.001 µM): 105%; viability, T/C (second compound 1 µM, first compound 0.00316 µM): 113%; viability, T/C (second compound 1 µM, first compound 0.01 µM): 105%; viability, T/C (second compound 3.16 µM, first compound 0.000316 µM): 114%; viability, T/C (second compound 3.16 µM, first compound 0.001 µM): 110%; viability, T/C (second compound 3.16 µM, first compound 0.00316 µM): 105%; viability, T/C (second compound 3.16 µM, first compound 0.01 µM): 93.3%; viability, T/C (second compound 10 µM, first compound 0.000316 µM): 105%; viability, T/C (second compound 10 µM, first compound 0.001 µM): 110%; viability, T/C (second compound 10 µM, first compound 0.00316 µM): 110%; viability, T/C (second compound 10 µM, first compound 0.01 µM): 112%
NS(=O)(=O)OCC1CC(n2ccc3c(NC4CCc5ccccc54)ncnc32)CC1O (stereo not given) + CC(CO)NC(=O)c1cc(-c2ccc(Cl)cc2)nn(-c2cnn(C)c2)c1=O | > 10 | > 10 | > 10 | > 10 | > 10 | 98.2 | 108 | 112 | 107 | 107 | 86.9 | 107 | 121 | 97.1 | 106 | 118 | 101 | 111 | 95.8 | 109 | viability, T/C [10]: 104%; viability, T/C [11]: 109%; viability, T/C [12]: 78.9%; viability, T/C [15]: 104%; viability, T/C [16]: 111%; viability, T/C [17]: 88.3%; viability, T/C [18]: 86.7%; viability, T/C [21]: 103%; viability, T/C [22]: 106%; viability, T/C [23]: 99.8%; viability, T/C [24]: 89.5%; viability, T/C [27]: 115%; viability, T/C [28]: 109%; viability, T/C [29]: 121%; viability, T/C [30]: 96.7%

— PubChem BioAssay AID1918999 (Molecular Pharmacology Branch, DTP, NCI, 2023)
